Experimental data published in US20230210906A1, “Composite 3D Brain Organoids with Optic Structures, Uses Thereof and Culture Medium for Obtaining Them” (priority 2022, published 2023).
Read-outs that look alike come from different tables or passages of the source.

Assays:
[1] = tested on: rod-bipolar synaptic disjunction; conditions: cited from earlier work
[2] = tested on: A2E formation and lipofuscin accumulation; conditions: mouse model of recessive Stargardt's macular degeneration; cited from earlier work
[3] = tested on: cells of the cell line IMR90; experiment: Optic vesicle formation in iPSC-derived 3D brain organoids exposed to retinol acetate; type: cell-based, human; conditions: for Percentage of organoids with optic vesicles (%): cell line IMR90
Method: It is important to start differentiation with a well-maintained human iPS cell culture. Cells were splitted once after thawing, mycoplasma tested and checked for appropriate stem cell morphology. Before inducing neural differentiation, iPS cells were dissociated to single cells. Therefore, iPS cells were once carefully washed with pre-warmed DMEM/F12 (Gibco) and then treated for 5 min. at 37° C. with Accutase (Sigma-Aldrich). After cell collection, centrifuging and counting, cells were diluted in neural induction medium (NIM, Stem cell technologies) plus Rockinhibitor (10 μM, Y-27632 2HCl, Selleck Chem) at a concentration of 1×10^5 cells per ml. 100 μl of this cell suspension was given into each well of a 96-well v-bottom low adherent plate and incubated at 37° C. and 5% CO2. Half of the medium was changed every day for 5 days until neurospheres were formed.
At day 5 of neural induction, the neurospheres were collected carefully with a cut […] pipette tip and transferred to a 100 mm petri dish containing “neurosphere medium” (Table 9). Additionally, 0.1% Matrigel was added to the medium and neurospheres were incubated for 5 days at 37° C. and 5% CO2. At day 3, 2 ml of “optic vesicle 3D brain organoid medium” (Table 10) containing retinol acetate was added. At day 5, neurospheres were transferred to spinner flasks containing 100 ml “optic vesicle 3D brain organoid medium” ([…]) to let the neurospheres developing to optic vesicle containing brain organoids. […] Optic vesicle organoids were collected for experiments at day 20, 30 and 50. For each cell line, we performed at least 3-4 rounds (batches) of optic vesicle 3D brain organoid generation. Each batch comprises of starting from thawing iPSCs until generating optic vesicle organoids. Morphological and functional optic vesicles brain organoids were easily identified by visibly pigmented areas and used for further analyses.

[4] = tested on: optic vesicle brain organoids (cell line GM25256)
Method: Optic vesicle organoids of day 40 to 50 were transferred to wells of a 12-wellplate each with 2 ml of optic organoid medium and kept in absolute darkness at 37° C. and 5% CO2 for 24 hours before electroretinogram (ERG) experiments. For ERG, each organoid was placed under red light in an electrode chamber. The electrode chamber was then placed into the dark chamber of the ERG apparatus and connected to the superfusion system containing optic organoid medium. For dose dependent light sensitivity, organoids were exposed to 500 milliseconds long flashes of 2000, 20.000 and 200.000 mlux. Each light intensity was repeated three times in a time interval of 3 min. before the next higher light intensity was applied and responses were recorded. Speed of superfusion was 0.5 ml/min.
For a third experiment, organoids were superfused in optic organoid medium with higher speed of 2 ml/min. […] For isolating the A-wave by blocking signal transduction from photoreceptors to next the retinal cell layers, 10 mM aspartate was added to the medium after the equilibration time and electric response was continuously recorded. Finally, aspartate was washed out by adding optic organoid medium without aspartate into the system while recording of electric signals as response to flashes.

[5] = tested on: sodium channel of organoid neurons (cell lines IMR-90 and GM25256); type: cell-based, human

Molecule: O=S(=O)(c1cccc2cnccc12)N1CCCNCC1 [fasudil]
- Effect on rod-bipolar synaptic disjunction ([1]; intravitreal injection): effective
- Effect on rod-bipolar synaptic disjunction ([1]; subretinal injection): reduces rod-bipolar synaptic disjunction

Molecule: CC1=C(/C=C/C(C)=C/C=C/C(C)=C\C(=O)O)C(C)(C)CCC1 [isotretinoin]
- Effect on A2E formation and lipofuscin accumulation [2]: inhibits A2E formation and lipofuscin accumulation

Molecule: retinol acetate [Retinoic acetate]
- Percentage of organoids with optic vesicles (%) ([3]; 40 nM): 21%
- Yield of optic vesicle brain organoids ([3]; 60 nM, among concentrations ranging from 0 to 120 nM): best results (highest yield of optic vesicle brain organoids)
- Formation of pigmented structures (possibly primordial eye fields) ([3]; 60 nM, at around day 30): reproducibly induced the formation of pigmented structures
- Percentage of organoids with optic vesicles (%) ([3]; 60 nM): 80%
- Percentage of organoids with optic vesicles (%) ([3]; 100 nM): 15%
- Percentage of organoids with optic vesicles (%) ([3]; 150 nM): 10%
- Percentage of organoids with optic vesicles (%) ([3]; 200 nM): 10%
- Percentage of organoids with optic vesicles (%) ([3]; 250 nM): 8%

Molecule: N[C@@H](CC(=O)O)C(=O)O [aspartate]
- ERG amplitude upon light flashes, single organoid recording [4]: < −400 pV
- ERG hyperpolarization after washout of aspartate [4]: −147 pV
- ERG hyperpolarization on average during aspartate treatment [4]: −278 pV
- Effect on ERG b-wave [4]: blocked the b-wave

Molecule: NC1=N[C@H](O)[C@H]2[C@H]3O[C@]4(O)O[C@@H]([C@@H](O)[C@@]2(N1)[C@@H]4O)[C@]3(O)CO [TTX, Tetrodotoxin]
- Effect on Na+ current (inward current) of neurons [5]: blocked Na+ current
- Sensitivity of outward (outwardly rectifying K+) current [5]: TTX insensitive
